Data taken from patent US7626031B2, “Substituted 3-(diarylmethylene)indolin-2-ones and methods of their use” (Symphony Evolution, Inc., priority 2002, dated 2009).

Experiments:
[1] = biological target: T1, KDR (baculovirus expressed human KDR kinase domain D807-V1356) (Homo sapiens, UniProt P35968); assay: biochemical
T1 construct: human KDR kinase domain D807-V1356; host or cells: baculovirus expression system
Description: (§1) Kinase activity and compound inhibition are investigated using one or more assay formats. The ATP concentrations for each assay are selected to be close to the Michaelis-Menten constant (KM) for each individual kinase. Dose-response experiments are performed at 10 different inhibitor concentrations in a 384-well plate format. […] Exemplary kinase assays are described below. KDR Assay
KDR biochemical activity was assessed using a Luciferase-Coupled Chemiluminescent Kinase assay (LCCA) format. Kinase activity was measured as the percent ATP remaining following the kinase reaction. Remaining ATP was detected by luciferase-luciferin-coupled chemiluminescence. […] The mixture is incubated at ambient temperature for 4 hours after which 20 uL luciferase-luciferin mix is added and the chemiluminescent signal read using a Wallac Victor^2 reader.

EphA2 = EphA2 (Homo sapiens, UniProt P29317); assay: Kinase assay, EphA2 (33P-ATP incorporation or luciferase-coupled ATP consumption); format: biochemical
Description: (§2) Kinase assays were performed by measurement of incorporation of γ-^33P ATP into immobilized myelin basic protein (MBP). […] Plates were washed 3× with 100 μl TBS. […] Compound dilutions were performed in DMSO and added to assay wells to a final DMSO concentration of 1%. Each data point was measured in duplicate, and at least two duplicate assays were performed for each individual compound determination. Enzyme was added to final concentrations of 10 nM or 20 nM, for example. A mixture of unlabeled ATP and γ-^33P ATP was added to start the reaction (2×10^6 cpm of γ-^33P ATP per well (3000 Ci/mmole) and either 10 μM or 30 μM unlabeled ATP, typically. The reactions were carried out for 1 hour at room temperature with shaking. Plates were washed 7× with TBS, followed by the addition of 50 μl/well scintillation fluid (Wallac). Plates were read using a Wallac Trilux counter. This is only one format of such assays, various other formats are possible, as known to one of ordinary skill in the art.
(§3) Tyrosine kinase activity is determined by 1) measurement of kinase-dependent ATP consumption by in the presence of a generic substrate such as, polyglutamic acid, tyrosine, 4:1 (pEY), by luciferase/luciferin-mediated chemiluminescence or; 2) incorporation of radioactive phosphate derived from ^33P-ATP into a generic substrate which has been adsorbed onto the well surface of polystyrene microtiter plates. Phosphorylated substrate products are quantified by scintillation spectrometry.
as §1

Flt-1 = Flt-1 (Homo sapiens, UniProt P17948); assay: Kinase assay, Flt-1 (33P-ATP incorporation or luciferase-coupled ATP consumption); format: biochemical; settings: read-out: Flt1 IC50
Description: as §2, §3, §1

EGFR = EGFR (Homo sapiens, UniProt P00533); assay: Kinase assay, EGFR (33P-ATP incorporation or luciferase-coupled ATP consumption); format: biochemical
Description: as §2, §3, §1

PDGFR alpha = PDGFR alpha (Homo sapiens, UniProt P16234); assay: Kinase assay, PDGFR alpha (33P-ATP incorporation or luciferase-coupled ATP consumption); format: biochemical; settings: read-out: PDGF-R-A IC50
Description: as §2, §3, §1

Fyn = Fyn (Homo sapiens, UniProt P06241); assay: Kinase assay, Fyn; format: biochemical
Description: as §1

IRK = IRK (Homo sapiens, UniProt P06213); assay: Kinase assay, IRK; format: biochemical
Description: as §1

FGFR1 = FGFR1 (Homo sapiens, UniProt P11362); assay: Kinase assay, FGFR1 (33P-ATP incorporation or luciferase-coupled ATP consumption); format: biochemical
Description: as §2, §3, §1

PDGFR alpha, sequence (P16234 24-1089): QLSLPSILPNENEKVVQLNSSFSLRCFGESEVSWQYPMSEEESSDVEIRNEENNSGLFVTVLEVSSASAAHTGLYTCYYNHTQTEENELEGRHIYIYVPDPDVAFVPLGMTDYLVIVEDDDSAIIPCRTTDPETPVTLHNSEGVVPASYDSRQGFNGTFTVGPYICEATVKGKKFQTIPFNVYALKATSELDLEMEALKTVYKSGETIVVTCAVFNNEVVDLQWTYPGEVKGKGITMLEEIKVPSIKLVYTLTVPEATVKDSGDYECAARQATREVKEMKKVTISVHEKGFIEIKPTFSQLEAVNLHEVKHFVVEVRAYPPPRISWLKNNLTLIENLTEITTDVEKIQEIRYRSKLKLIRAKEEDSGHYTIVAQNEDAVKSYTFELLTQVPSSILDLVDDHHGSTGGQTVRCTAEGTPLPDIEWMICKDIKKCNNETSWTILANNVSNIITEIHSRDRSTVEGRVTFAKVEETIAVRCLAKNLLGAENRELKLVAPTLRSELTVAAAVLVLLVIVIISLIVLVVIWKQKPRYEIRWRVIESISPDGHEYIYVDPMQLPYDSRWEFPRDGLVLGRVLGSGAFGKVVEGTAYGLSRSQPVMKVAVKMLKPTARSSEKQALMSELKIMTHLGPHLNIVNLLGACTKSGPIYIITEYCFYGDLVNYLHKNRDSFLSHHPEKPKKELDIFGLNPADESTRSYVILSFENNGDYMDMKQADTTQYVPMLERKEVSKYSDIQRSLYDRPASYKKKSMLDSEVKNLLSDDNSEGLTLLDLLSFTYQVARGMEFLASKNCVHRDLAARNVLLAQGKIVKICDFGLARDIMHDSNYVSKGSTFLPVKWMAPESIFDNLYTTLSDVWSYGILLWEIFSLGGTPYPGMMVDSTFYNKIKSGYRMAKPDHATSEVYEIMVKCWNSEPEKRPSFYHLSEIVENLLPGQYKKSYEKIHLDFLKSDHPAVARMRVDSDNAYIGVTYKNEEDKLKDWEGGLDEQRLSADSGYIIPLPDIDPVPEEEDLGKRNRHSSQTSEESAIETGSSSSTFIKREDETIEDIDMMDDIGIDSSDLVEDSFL
EGFR, sequence (P00533 25-1210, species assumed): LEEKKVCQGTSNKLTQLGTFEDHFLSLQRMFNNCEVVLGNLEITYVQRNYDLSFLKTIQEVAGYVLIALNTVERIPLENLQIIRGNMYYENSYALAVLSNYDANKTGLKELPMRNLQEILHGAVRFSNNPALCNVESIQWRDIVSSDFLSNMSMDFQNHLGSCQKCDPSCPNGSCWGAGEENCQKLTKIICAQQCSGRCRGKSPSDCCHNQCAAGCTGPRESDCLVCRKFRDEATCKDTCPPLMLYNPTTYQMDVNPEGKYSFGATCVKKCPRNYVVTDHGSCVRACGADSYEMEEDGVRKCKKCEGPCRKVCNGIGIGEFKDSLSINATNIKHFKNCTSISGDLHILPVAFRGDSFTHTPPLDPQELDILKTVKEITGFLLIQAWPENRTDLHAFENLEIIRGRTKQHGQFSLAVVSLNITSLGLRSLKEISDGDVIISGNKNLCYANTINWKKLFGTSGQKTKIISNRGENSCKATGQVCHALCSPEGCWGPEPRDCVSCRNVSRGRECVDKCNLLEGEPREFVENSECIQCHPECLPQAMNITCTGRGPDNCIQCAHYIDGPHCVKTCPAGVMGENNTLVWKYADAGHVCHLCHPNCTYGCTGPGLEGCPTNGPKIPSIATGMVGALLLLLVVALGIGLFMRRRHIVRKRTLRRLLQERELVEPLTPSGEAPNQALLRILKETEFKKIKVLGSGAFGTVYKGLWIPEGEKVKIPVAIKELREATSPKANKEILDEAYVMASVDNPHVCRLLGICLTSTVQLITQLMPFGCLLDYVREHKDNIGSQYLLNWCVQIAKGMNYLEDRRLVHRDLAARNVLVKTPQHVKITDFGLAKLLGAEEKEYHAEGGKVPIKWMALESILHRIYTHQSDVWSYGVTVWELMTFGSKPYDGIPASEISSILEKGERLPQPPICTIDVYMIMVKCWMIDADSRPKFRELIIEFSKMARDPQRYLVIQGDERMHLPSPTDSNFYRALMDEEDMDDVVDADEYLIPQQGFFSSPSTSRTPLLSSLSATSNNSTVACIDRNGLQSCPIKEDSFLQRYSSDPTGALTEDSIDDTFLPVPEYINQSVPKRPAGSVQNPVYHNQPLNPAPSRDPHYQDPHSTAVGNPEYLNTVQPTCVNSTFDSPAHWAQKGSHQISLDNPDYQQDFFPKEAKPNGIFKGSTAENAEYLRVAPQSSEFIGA
T1 sequence (P35968 807-1356): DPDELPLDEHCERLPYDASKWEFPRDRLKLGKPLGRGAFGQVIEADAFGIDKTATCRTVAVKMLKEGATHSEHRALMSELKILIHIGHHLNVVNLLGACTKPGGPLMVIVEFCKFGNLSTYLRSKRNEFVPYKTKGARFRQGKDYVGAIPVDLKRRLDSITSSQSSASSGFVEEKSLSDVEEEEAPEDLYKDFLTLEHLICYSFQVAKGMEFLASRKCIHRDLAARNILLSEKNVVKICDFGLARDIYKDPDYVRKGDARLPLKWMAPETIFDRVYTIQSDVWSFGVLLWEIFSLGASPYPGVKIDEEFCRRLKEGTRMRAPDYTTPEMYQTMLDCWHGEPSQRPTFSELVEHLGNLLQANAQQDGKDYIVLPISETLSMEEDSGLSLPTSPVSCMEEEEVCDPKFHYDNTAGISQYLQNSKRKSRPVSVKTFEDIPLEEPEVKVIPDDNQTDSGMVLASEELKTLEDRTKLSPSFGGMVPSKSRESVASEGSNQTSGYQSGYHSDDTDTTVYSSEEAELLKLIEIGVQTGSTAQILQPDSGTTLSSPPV
FGFR1, sequence (P11362 22-822, species assumed): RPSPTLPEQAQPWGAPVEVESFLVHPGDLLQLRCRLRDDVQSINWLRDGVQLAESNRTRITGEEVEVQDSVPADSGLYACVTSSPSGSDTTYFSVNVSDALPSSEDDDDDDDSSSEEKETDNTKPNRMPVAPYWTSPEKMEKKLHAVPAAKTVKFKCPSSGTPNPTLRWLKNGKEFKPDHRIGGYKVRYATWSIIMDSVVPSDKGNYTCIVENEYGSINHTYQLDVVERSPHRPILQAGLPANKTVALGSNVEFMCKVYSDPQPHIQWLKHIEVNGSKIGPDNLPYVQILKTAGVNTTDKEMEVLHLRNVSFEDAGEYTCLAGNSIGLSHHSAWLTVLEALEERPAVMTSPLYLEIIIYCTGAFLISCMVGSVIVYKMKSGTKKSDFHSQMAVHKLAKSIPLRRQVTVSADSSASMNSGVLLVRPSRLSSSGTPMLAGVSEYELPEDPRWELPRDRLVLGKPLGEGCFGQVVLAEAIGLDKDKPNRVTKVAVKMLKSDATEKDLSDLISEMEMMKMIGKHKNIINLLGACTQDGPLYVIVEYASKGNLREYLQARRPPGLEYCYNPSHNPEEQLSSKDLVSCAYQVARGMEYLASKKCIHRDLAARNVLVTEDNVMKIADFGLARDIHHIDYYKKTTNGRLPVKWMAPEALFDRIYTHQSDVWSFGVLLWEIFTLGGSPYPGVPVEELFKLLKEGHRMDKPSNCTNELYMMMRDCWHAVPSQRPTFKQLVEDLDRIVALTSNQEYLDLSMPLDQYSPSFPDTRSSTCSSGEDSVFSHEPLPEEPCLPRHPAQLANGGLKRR
Fyn, sequence (P06241 whole entry, species assumed): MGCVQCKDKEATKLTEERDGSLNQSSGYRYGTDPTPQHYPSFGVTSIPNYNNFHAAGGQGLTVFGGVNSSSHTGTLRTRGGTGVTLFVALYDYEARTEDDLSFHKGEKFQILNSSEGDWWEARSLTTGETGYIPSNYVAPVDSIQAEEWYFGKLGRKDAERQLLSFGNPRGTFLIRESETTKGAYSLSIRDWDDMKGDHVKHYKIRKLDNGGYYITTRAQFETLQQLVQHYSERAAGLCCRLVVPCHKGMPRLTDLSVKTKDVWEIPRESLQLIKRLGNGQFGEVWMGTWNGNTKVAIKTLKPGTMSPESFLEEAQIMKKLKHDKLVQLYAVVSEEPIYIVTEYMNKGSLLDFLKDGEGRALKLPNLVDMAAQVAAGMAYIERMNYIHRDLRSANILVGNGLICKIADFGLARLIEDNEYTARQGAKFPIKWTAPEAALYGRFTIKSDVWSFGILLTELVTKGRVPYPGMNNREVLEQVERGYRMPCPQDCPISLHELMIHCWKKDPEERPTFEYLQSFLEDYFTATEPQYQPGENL
EphA2, sequence (P29317 24-976, species assumed): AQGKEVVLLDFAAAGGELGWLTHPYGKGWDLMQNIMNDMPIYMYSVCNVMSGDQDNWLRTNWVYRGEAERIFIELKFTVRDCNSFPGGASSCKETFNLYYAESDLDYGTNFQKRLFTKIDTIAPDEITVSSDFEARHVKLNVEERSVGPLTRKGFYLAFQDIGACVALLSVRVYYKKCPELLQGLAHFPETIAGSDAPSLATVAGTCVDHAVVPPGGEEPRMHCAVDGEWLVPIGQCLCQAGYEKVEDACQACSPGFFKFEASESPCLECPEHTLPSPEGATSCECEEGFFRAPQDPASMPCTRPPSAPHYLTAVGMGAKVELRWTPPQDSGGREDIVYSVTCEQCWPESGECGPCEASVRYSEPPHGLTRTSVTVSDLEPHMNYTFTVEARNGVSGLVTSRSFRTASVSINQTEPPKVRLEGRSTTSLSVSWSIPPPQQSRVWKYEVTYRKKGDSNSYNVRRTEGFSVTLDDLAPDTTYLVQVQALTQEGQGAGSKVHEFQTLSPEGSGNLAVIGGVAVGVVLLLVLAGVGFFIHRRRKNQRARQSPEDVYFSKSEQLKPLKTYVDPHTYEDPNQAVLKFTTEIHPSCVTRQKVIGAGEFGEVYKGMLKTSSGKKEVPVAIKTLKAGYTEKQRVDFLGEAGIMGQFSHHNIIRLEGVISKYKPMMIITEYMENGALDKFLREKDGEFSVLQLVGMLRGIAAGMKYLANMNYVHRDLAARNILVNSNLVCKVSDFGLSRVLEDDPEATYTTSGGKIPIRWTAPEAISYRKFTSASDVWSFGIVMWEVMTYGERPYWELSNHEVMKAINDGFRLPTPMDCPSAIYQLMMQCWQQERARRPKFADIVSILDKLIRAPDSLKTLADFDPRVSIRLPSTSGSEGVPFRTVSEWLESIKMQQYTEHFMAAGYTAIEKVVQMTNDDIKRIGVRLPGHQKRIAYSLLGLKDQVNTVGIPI

| Structure (SMILES) | IC50 [1] [nM] | IC50 (EphA2) [nM] | IC50 (Flt-1) [nM] | IC50 (EGFR) [nM] | IC50 (PDGFR alpha) [nM] | IC50 (Fyn) [nM] | IC50 (IRK) [nM] | IC50 (FGFR1) [nM] |
| --- | --- | --- | --- | --- | --- | --- | --- | --- |
| COc1ccc2[nH]c(/C(=C3\C(=O)Nc4ccc(NC5CCN(Cc6ccccc6)C5)cc43)c3ccccc3)nc2c1 (stereo not shown) [Entry 1, (3Z)-3-[[5-(methyloxy)-1H-benzimidazol-2-yl](phenyl)methylidene[-5-}[1-(phenylmethyl)pyrrolidin-3-yl]amino}-1,3-dihydro-2H-indol-2-one] | < 50 | 500 to 5000 | 50 to 500 | 500 to 5000 | 50 to 500 | 50 to 500 | > 5000 |  |
| CCN1CCC(Nc2ccc3c(c2)/C(=C(\c2ccc(OC)cc2)c2nc4cc(OC)ccc4[nH]2)C(=O)N3)CC1 [Entry 5, (3Z)-5-[(1-ethylpiperidin-4-yl)amino]-3-{[5-(methyloxy)-1H-benzimidazol-2-yl][4-(methyloxy)phenyl]methylidene}-1,3-dihydro-2H-indol-2-one] | < 50 | > 5000 | 50 to 500 | 500 to 5000 | < 50 | < 50 | 500 to 5000 |  |
| O=C1Nc2ccc(NC3CCN(CCN4CCCC4)CC3)cc2/C1=C(\c1cccc(F)c1)c1ncc[nH]1 [Entry 85, (3Z)-3-[(3-fluorophenyl)(1H-imidazol-2-yl)methylidene]-5-{[1-(2-pyrrolidin-1-ylethyl)piperidin-4-yl]amino}-1,3-dihydro-2H-indol-2-one] | < 50 | 500 to 5000 |  | > 5000 | < 50 | 50 to 500 | > 5000 | 50 to 500 |
| Cc1ccc(/C(=C2/C(=O)Nc3ccc(NC4CCN(C)CC4)cc32)c2ncc[nH]2)cc1 [Entry 86] | < 50 | 50 to 500 |  | 50 to 500 | < 50 | < 50 | 500 to 5000 | < 50 |
| COCCN1CCC(Nc2ccc3c(c2)/C(=C(\c2cccc(F)c2)c2ncn[nH]2)C(=O)N3)CC1 [Entry 87] | 50 to 500 | > 5000 |  | > 5000 | 50 to 500 | > 5000 | > 5000 | 50 to 500 |
| CCOC(=O)c1[nH]c(/C(=C2\C(=O)Nc3ccc(NC4CCN(CCOC)CC4)cc32)c2cccc(F)c2)nc1C [Entry 88, ethyl 2-{(Z)-(3-fluorophenyl)[5-({1-[2-(methyloxy)ethyl]piperidin-4-yl}amino)-2-oxo-1,2-dihydro-3H-indol-3-ylidene]methyl}-4-methyl-1H-imidazole-5-carboxylate] | 50 to 500 | > 5000 |  | > 5000 | < 50 | 50 to 500 | > 5000 | 50 to 500 |
| COCCN1CCC(Nc2ccc3c(c2)/C(=C(\c2ccccc2)c2ncc[nH]2)C(=O)N3)CC1 [Entry 89] | < 50 | 500 to 5000 |  | > 5000 | < 50 | < 50 | 500 to 5000 | < 50 |
| COCCN1CCC(Nc2ccc3c(c2)/C(=C(\c2ccc(OC)cc2)c2ncc[nH]2)C(=O)N3)CC1 [Entry 90] | < 50 | 500 to 5000 |  | > 5000 | < 50 | < 50 | > 5000 | 50 to 500 |
| COCCN1CCC(Nc2ccc3c(c2)/C(=C(\c2ccc(Cl)cc2)c2ncc[nH]2)C(=O)N3)CC1 [Entry 91, (3Z)-3-[(4-chlorophenyl)(1H-imidazol-2-yl)methylidene]-5-({1-[2-(methyloxy)ethyl]piperidin-4-yl}amino)-1,3-dihydro-2H-indol-2-one] | < 50 | 500 to 5000 |  | > 5000 | < 50 | < 50 | 500 to 5000 | < 50 |
| COCCN1CCC(Nc2ccc3c(c2)/C(=C(\c2ccc(C(F)(F)F)c(F)c2)c2ncc[nH]2)C(=O)N3)CC1 [Entry 92] | < 50 | 500 to 5000 |  | > 5000 | < 50 | 50 to 500 | > 5000 | 50 to 500 |
